A word on the IC50: it is the point on the concentration scale where inhibition reaches its midpoint. Low readings indicate inhibition by little substance, high ones a need for much substance.

For the test, the target named is T1, AKT1-E17K (Homo sapiens, UniProt P31749, E17K).
T1 construct: host or cells: HEK-293 (ATCC CRL-1573)
T1 sequence (P31749 whole entry E17K): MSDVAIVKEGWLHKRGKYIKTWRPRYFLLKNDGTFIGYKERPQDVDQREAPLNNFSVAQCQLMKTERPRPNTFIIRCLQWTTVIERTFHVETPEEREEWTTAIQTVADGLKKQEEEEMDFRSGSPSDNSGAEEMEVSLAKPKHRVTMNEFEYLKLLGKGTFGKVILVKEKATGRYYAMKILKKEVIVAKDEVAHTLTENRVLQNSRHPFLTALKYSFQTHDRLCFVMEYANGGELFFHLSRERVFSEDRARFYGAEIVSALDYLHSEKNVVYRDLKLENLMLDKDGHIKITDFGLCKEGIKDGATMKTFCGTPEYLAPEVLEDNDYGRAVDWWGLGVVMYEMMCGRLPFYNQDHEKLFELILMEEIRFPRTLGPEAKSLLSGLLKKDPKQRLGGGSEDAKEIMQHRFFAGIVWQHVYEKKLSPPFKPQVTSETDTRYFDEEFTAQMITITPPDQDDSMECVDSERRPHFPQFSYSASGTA
Kind of test: NanoBRET Target Engagement (TE) Assay. Format: cell-based. The procedure, abridged:
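Live cells transiently expressing NanoLuc-AKT1 E17K fusion, incubated 2 h with tracer and compound before substrate plus extracellular NanoLuc inhibitor were added. BRET read at 450/600 nm; EC50 from variable-slope sigmoidal fit of tracer displacement.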
On the technique in general: In BRET a luciferase serves as donor, and the signal depends on an acceptor being close.
`Nc1ncccc1-c1nc2ccc(-c3ccccc3)nc2n1-c1ccc(CN2CC3(C2)CN(c2ccc(O)c(C=O)c2)C3)cc1` [Example 91, 5-(6-(4-(2-(2-Aminopyridin-3-yl)-5-phenyl-3H-imidazo[4,5-b]pyridin-3-yl)benzyl)-2,6-diazaspiro[3.3]heptan-2-yl)-2-hydroxybenzaldehyde] had an IC50 of 60 to 600 nM.

Take `Nc1ncccc1-c1nc2ccc(-c3ccccc3)nc2n1-c1ccc(CN2CCC(Nc3ccc(O)c(C=O)c3)CC2)cc1` [Example 48, 5-((1-(4-(2-(2-Aminopyridin-3-yl)-5-phenyl-3H-imidazo[4,5-b]pyridin-3-yl)benzyl)piperidin-4-yl)amino)-2-hydroxybenzaldehyde]: the IC50 lay within 60 to 600 nM.

With `Nc1ncccc1-c1nc2ccc(-c3ccccc3F)nc2n1-c1ccc(CN2CCN(C(=O)c3ccc(C=O)c(O)c3)CC2)cc1` [Example 142, 4-(4-(4-(2-(2-Aminopyridin-3-yl)-5-(2-fluorophenyl)-3H-imidazo[4,5-b]pyridin-3-yl)benzyl)piperazine-1-carbonyl)-2-hydroxybenzaldehyde], the half-maximal inhibitory concentration (IC50) is greater than 600 nM.

`Nc1ncccc1-c1nc2ccc(-c3ccccc3)nc2n1-c1ccc(CN2CCC3(CC2)CN(c2ccc(C=O)c(O)c2)C3)cc1` [Example 73, 4-(7-(4-(2-(2-Aminopyridin-3-yl)-5-phenyl-3H-imidazo[4,5-b]pyridin-3-yl)benzyl)-2,7-diazaspiro[3.5]nonan-2-yl)-2-hydroxybenzaldehyde] registered an IC50 of 60 to 600 nM.

`Nc1ncccc1-c1nc2ccc(-c3ccc[nH]c3=O)nc2n1-c1ccc(CN2CCN(C(=O)c3ccc(C=O)c(O)c3)CC2)cc1` [Example 15, 4-(4-(4-(2-(2-Aminopyridin-3-yl)-5-(2-oxo-1,2-dihydropyridin-3-yl)-3H-imidazo[4,5-b]pyridin-3-yl)benzyl)piperazine-1-carbonyl)-2-hydroxybenzaldehyde] yielded an IC50 greater than 600 nM.

`Nc1ncccc1-c1nc2ccc(-c3ccccc3)nc2n1-c1ccc(CN2CCC3(CC2)CCN(C(=O)c2ccc(O)c(C=O)c2)C3)cc1` [Example 74, 5-(8-(4-(2-(2-aminopyridin-3-yl)-5-phenyl-3H-imidazo[4,5-b]pyridin-3-yl)benzyl)-2,8-diazaspiro[4.5]decane-2-carbonyl)-2-hydroxybenzaldehyde] returned an IC50 of 15 to 60 nM.

On to `Nc1ncccc1-c1nc2ccc(-c3ccccc3)nc2n1-c1ccc(CN2CC3CCC(C2)N3C(=O)c2ccc(O)c(C=O)c2)cc1` [Example 110, 5-(3-(4-(2-(2-Aminopyridin-3-yl)-5-phenyl-3H-imidazo[4,5-b]pyridin-3-yl)benzyl)-3,8-diazabicyclo[3.2.1]octane-8-carbonyl)-2-hydroxybenzaldehyde], for which the IC50 is greater than 600 nM.

As for `Nc1ncccc1-c1nc2ccc(-c3ccc[nH]c3=O)nc2n1-c1ccc(CN2CCN(C(=O)c3ccc(O)c(C=O)c3)CC2)cc1` [Example 14, 5-(4-(4-(2-(2-Aminopyridin-3-yl)-5-(2-oxo-1,2-dihydropyridin-3-yl)-3H-imidazo[4,5-b]pyridin-3-yl)benzyl)piperazine-1-carbonyl)-2-hydroxybenzaldehyde], the IC50 is greater than 600 nM.

In turn, `Nc1ncccc1-c1nc2ccc(-c3ccccc3)nc2n1-c1ccc(CN2CC3CCC(C2)N3c2ccc(C=O)c(O)c2)cc1` [Example 111, 4-(3-(4-(2-(2-Aminopyridin-3-yl)-5-phenyl-3H-imidazo[4,5-b]pyridin-3-yl)benzyl)-3,8-diazabicyclo[3.2.1]octan-8-yl)-2-hydroxybenzaldehyde] gave a half-maximal inhibitory concentration (IC50) greater than 600 nM.

`Nc1ncccc1-c1nc2ccc(-c3ccccc3)nc2n1-c1ccc(CN2CCC3(CCN(C(=O)c4ccc(C=O)c(O)c4)CC3)C2)cc1` [Example 90, 4-(2-(4-(2-(2-Aminopyridin-3-yl)-5-phenyl-3H-imidazo[4,5-b]pyridin-3-yl)benzyl)-2,8-diazaspiro[4.5]decane-8-carbonyl)-2-hydroxybenzaldehyde] displayed an IC50 of 60 to 600 nM.

For `Nc1ncccc1-c1nc2ccc(-c3ccccc3)nc2n1-c1ccc(CN2CCN(c3cc(O)c(C=O)c(F)c3)CC2)cc1` [Example 24, 4-(4-(4-(2-(2-Aminopyridin-3-yl)-5-phenyl-3H-imidazo[4,5-b]pyridin-3-yl)benzyl)piperazin-1-yl)-2-fluoro-6-hydroxybenzaldehyde], the IC50 was in the range of 60 to 600 nM.

With `Nc1ncccc1-c1nc2ccc(-c3ccccc3)nc2n1-c1ccc(CN2C[C@@H]3C[C@H]2CN3C(=O)c2ccc(O)c(C=O)c2)cc1` [Example 121, 5-((1S,4S)-5-(4-(2-(2-Aminopyridin-3-yl)-5-phenyl-3H-imidazo[4,5-b]pyridin-3-yl)benzyl)-2,5-diazabicyclo[2.2.1]heptane-2-carbonyl)-2-hydroxybenzaldehyde], the IC50 was 60 to 600 nM.

`CN(C(=O)c1ccc(C=O)c(O)c1)C1CCN(Cc2ccc(-n3c(-c4cccnc4N)nc4ccc(-c5ccccc5)nc43)cc2)CC1` [Example 60, N-(1-(4-(2-(2-Aminopyridin-3-yl)-5-phenyl-3H-imidazo[4,5-b]pyridin-3-yl)benzyl)piperidin-4-yl)-4-formyl-3-hydroxy-N-methylbenzamide]: the IC50 was 60 to 600 nM.

As to `Nc1ncccc1-c1nc2ccc(-c3ccccc3)nc2n1-c1ccc(CN2CCN(c3ccc(O)c(C=O)c3)CC2)cc1` [Example 10, 5-(4-(4-(2-(2-aminopyridin-3-yl)-5-phenyl-3H-imidazo[4,5-b]pyridin-3-yl)benzyl)piperazin-1-yl)-2-hydroxybenzaldehyde], the IC50 lay in the range of 60 to 600 nM.

As for `Nc1ncccc1-c1nc2ccc(-c3cccc(=O)[nH]3)nc2n1-c1ccc(CN2CCN(C(=O)c3ccc(O)c(C=O)c3)CC2)cc1` [Example 45, 5-(4-(4-(2-(2-Aminopyridin-3-yl)-5-(6-oxo-1,6-dihydropyridin-2-yl)-3H-imidazo[4,5-b]pyridin-3-yl)benzyl)piperazine-1-carbonyl)-2-hydroxybenzaldehyde], the IC50 is greater than 600 nM.

`Nc1ncccc1-c1nc2ccc(-c3ccccc3)nc2n1-c1ccc(CN2C[C@H]3CN(C(=O)c4ccc(O)c(C=O)c4)C[C@@H]3C2)cc1` [Example 135, 5-((3aS,6aS)-5-(4-(2-(2-Aminopyridin-3-yl)-5-phenyl-3H-imidazo[4,5-b]pyridin-3-yl)benzyl)octahydropyrrolo[3,4-c]pyrrole-2-carbonyl)-2-hydroxybenzaldehyde]: the IC50 was 15 to 60 nM.

In the case of `Nc1ncccc1-c1nc2ccc(-c3ccc(Cl)cc3)nc2n1-c1ccc(CN2CCN(C(=O)c3ccc(C=O)c(O)c3)CC2)cc1` [Example 148, 4-(4-(4-(2-(2-aminopyridin-3-yl)-5-(4-chlorophenyl)-3H-imidazo[4,5-b]pyridin-3-yl)benzyl)piperazine-1-carbonyl)-2-hydroxybenzaldehyde], the IC50 was greater than 600 nM.

Regarding `Nc1ncccc1-c1nc2ccc(-c3ccccc3)nc2n1-c1ccc(CN2C[C@@H]3CN(C(=O)c4ccc(C=O)c(O)c4)C[C@@H]3C2)cc1` [Example 132, 4-((3aR,6aS)-5-(4-(2-(2-Aminopyridin-3-yl)-5-phenyl-3H-imidazo[4,5-b]pyridin-3-yl)benzyl)octahydropyrrolo[3,4-c]pyrrole-2-carbonyl)-2-hydroxybenzaldehyde], the IC50 lay within 60 to 600 nM.

The compound `CN(Cc1ccc(-n2c(-c3cccnc3N)nc3ccc(-c4ccccc4)nc32)cc1)c1ccc(O)c(C=O)c1` [Example 18, 5-((4-(2-(2-Aminopyridin-3-yl)-5-phenyl-3H-imidazo[4,5-b]pyridin-3-yl)benzyl)(methyl)amino)-2-hydroxybenzaldehyde] gave a half-maximal inhibitory concentration (IC50) greater than 600 nM.

Regarding `Nc1ncccc1-c1nc2ccc(N3CCOCC3)nc2n1-c1ccc(CN2CCC(NC(=O)c3ccc(C=O)c(O)c3)CC2)cc1` [Example 53, N-(1-(4-(2-(2-Aminopyridin-3-yl)-5-morpholino-3H-imidazo[4,5-b]pyridin-3-yl)benzyl)piperidin-4-yl)-4-formyl-3-hydroxybenzamide], the IC50 fell in the range of 60 to 600 nM.

Take `N#Cc1ccccc1-c1ccc2nc(-c3cccnc3N)n(-c3ccc(CN4CCN(C(=O)c5ccc(O)c(C=O)c5)CC4)cc3)c2n1` [Example 36, 2-(2-(2-aminopyridin-3-yl)-3-(4-((4-(3-formyl-4-hydroxybenzoyl)piperazin-1-yl)methyl)phenyl)-3H-imidazo[4,5-b]pyridin-5-yl)benzonitrile]: the IC50 was greater than 600 nM.

For `Nc1ncccc1-c1nc2ccc(-c3ccccc3)nc2n1-c1ccc(CN2CCC3(CCCN(C(=O)c4ccc(C=O)c(O)c4)C3)C2)cc1` (centres unmarked) [Example 87, 4-(2-(4-(2-(2-Aminopyridin-3-yl)-5-phenyl-3H-imidazo[4,5-b]pyridin-3-yl)benzyl)-2,7-diazaspiro[4.5]decane-7-carbonyl)-2-hydroxybenzaldehyde], the IC50 was 60 to 600 nM.

Compound `Nc1ncccc1-c1nc2ccc(-c3ccccc3)nc2n1-c1ccc(CN2CC3(CC(NC(=O)c4ccc(O)c(C=O)c4)C3)C2)cc1` [Example 69, N-(2-(4-(2-(2-Aminopyridin-3-yl)-5-phenyl-3H-imidazo[4,5-b]pyridin-3-yl)benzyl)-2-azaspiro[3.3]heptan-6-yl)-3-formyl-4-hydroxybenzamide] displayed an IC50 of less than 15 nM.

`Nc1ncccc1-c1nc2ccc(-c3ccccc3)nc2n1-c1ccc(CN2CC(NC(=O)c3ccc(C=O)c(O)c3)C2)cc1` [Example 65, N-(1-(4-(2-(2-Aminopyridin-3-yl)-5-phenyl-3H-imidazo[4,5-h]pyridin-3-yl)benzyl)azetidin-3-yl)-4-formyl-3-hydroxybenzamide]: the half-inhibitory concentration (IC50) was in the range of 15 to 60 nM.

`Nc1ncccc1-c1nc2ccc(N3CCOCC3)nc2n1-c1ccc(CN2CCN(C(=O)c3ccc(O)c(C=O)c3)CC2)cc1` [Example 32, 5-(4-(4-(2-(2-Aminopyridin-3-yl)-5-morpholino-3H-imidazo[4,5-b]pyridin-3-yl)benzyl)piperazine-1-carbonyl)-2-hydroxybenzaldehyde] came in with an IC50 greater than 600 nM.

For the compound `Nc1ncccc1-c1nc2ccc(-c3ccc(Cl)cc3)nc2n1-c1ccc(CN2CCN(C(=O)c3ccc(O)c(C=O)c3)CC2)cc1` [Example 147, 5-(4-(4-(2-(2-aminopyridin-3-yl)-5-(4-chlorophenyl)-3H-imidazo[4,5-b]pyridin-3-yl)benzyl)piperazine-1-carbonyl)-2-hydroxybenzaldehyde], the IC50 is greater than 600 nM.

Source of the values: patent US20260365647A1, “AKT1 MODULATORS” (Alterome Therapeutics, Inc., priority 2022, published 2026).
